Drawing on patent US10722520B2, “Heterocyclic compounds and their use in preventing or treating bacterial infections” (MUTABILIS, priority 2016, dated 2020), this text covers IC50 and MIC for four compounds.

Some targets named below: SHV-1 (Klebsiella pneumoniae, UniProt P0AD64); CTX-M-15 (Escherichia coli, UniProt Q9EXV5); KPC-2 (Klebsiella pneumoniae, UniProt Q9F663); TEM-1 (Escherichia coli, UniProt P62593); OXA-1 (Escherichia coli, UniProt P13661); OXA-48 (Klebsiella pneumoniae, UniProt Q6XEC0); OXA-11 (Pseudomonas aeruginosa, UniProt Q06778).
A further experiment has as its target AmpC (PAE) (Pseudomonas aeruginosa, UniProt P24735). Put plainly: biochemical.
The next experiment deals with AmpC (P99) (Enterobacter cloacae, UniProt P05364). Put plainly: biochemical.
Another experiment has as its target CMY-37 (Citrobacter freundii, UniProt P05193). As to conditions: read-out: IC50 β-lactamase CMY-37.
The next experiment addresses OXA-15 (Pseudomonas aeruginosa, UniProt Q51574). Put plainly: biochemical.
The next experiment deals with K. pneumoniae BAA-1898. Put plainly: MIC of compound alone, broth microdilution. The class given is cell-based. As to conditions: Klebsiella pneumoniae, BAA1898; strain BAA-1898; compound alone; read-out: MIC compounds of the invention alone. In outline: (§1)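 Step one, log-phase suspension set to 5×10^5 cfu/mL final in CA-MHB. Step two, incubation at 35° C under ambient air for 16-20 h. Step three, visual reading of the lowest growth-free concentration as MIC.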
For orientation: Dilution methods test growth across graded concentrations, often in twofold steps.

Another experiment deals with E. cloacae P99. Put plainly: MIC of compound alone, broth microdilution. The class given is cell-based. As to conditions: Enterobacter cloacae; strain P99; compound alone; read-out: MIC compounds of the invention alone. In outline: as §1
Another experiment has as its system E. coli 190317. Put plainly: MIC of compound alone, broth microdilution. Type of experiment: cell-based. As to conditions: Escherichia coli; strain 190317; compound alone; read-out: MIC compounds of the invention alone. A digest of the protocol:
as §1

The subject of another experiment is K. pneumoniae 6299. Put plainly: MIC of compound alone, broth microdilution. Type of experiment: cell-based. As to conditions: Klebsiella pneumoniae; strain 6299; compound alone; read-out: MIC compounds of the invention alone. A digest of the protocol: as §1
For the next experiment, the system named is P. aeruginosa CIP107051. Put plainly: MIC of compound alone, broth microdilution. Type of experiment: cell-based. As to conditions: Pseudomonas aeruginosa; strain CIP107051; compound alone; read-out: MIC compounds of the invention alone. In outline: as §1

The structures appear in SMILES notation.

Take `O=C(Nc1nncs1)c1ccn(C2=CC3CN(C2)C(=O)N3OS(=O)(=O)[O-])n1.[Na+]` (stereo not shown) [Example 84, sodium [7-oxo-3-[3-(1,3,4-thiadiazol-2-ylcarbamoyl)pyrazol-1-yl]-1,6-diazabicyclo[3.2.1]oct-3-en-6-yl]sulfate]: the IC50 (usually the concentration that gives 50% inhibition) on SHV-1 is 2.7 nM; against AmpC (PAE), 160 nM; at CTX-M-15, 1 nM; against AmpC (P99) it was 25 nM; against KPC-2 it was 8.5 nM; on TEM-1 it was 0.78 nM. The IC50 against OXA-1 is 150 nM; on CMY-37, 20 nM; against OXA-15 it was 98 nM; on OXA-48, 7.2 nM; at OXA-11, 22 nM. Also, the MIC in the experiment with K. pneumoniae BAA-1898, in the experiment on E. cloacae P99, in the experiment on E. coli 190317, in the experiment on K. pneumoniae 6299 and in the experiment with P. aeruginosa CIP107051 was more than 32 µg/mL each time.
As for `CC(=O)c1ccn(C2=CC3CN(C2)C(=O)N3OS(=O)(=O)[O-])n1.[Na+]` (stereo not shown) [Example 28, sodium (7-oxo-3-(3-acetylpyrazol-1-yl)-1,6-diazabicyclo[3.2.1]oct-3-en-6-yl) sulfate], the IC50 against SHV-1 came out at 2.2 nM; against AmpC (PAE), 200 nM; on CTX-M-15, 0.5 nM; at AmpC (P99), 10 nM; at KPC-2 it was 4.8 nM; on TEM-1 it was 0.37 nM. Moreover, the IC50 at OXA-1 was 64 nM; at CMY-37, 37 nM; against OXA-15 it was 30 nM; against OXA-48 it was 3.8 nM; on OXA-11 it was 29 nM. Moreover, the MIC (commonly the smallest concentration in the dilution series that meets the test's criterion for growth inhibition) is more than 32 µg/mL in the experiment with K. pneumoniae BAA-1898; more than 32 µg/mL with E. cloacae P99; 16 µg/mL with E. coli 190317; more than 32 µg/mL in the experiment on K. pneumoniae 6299; more than 32 µg/mL in the experiment with P. aeruginosa CIP107051.
`O=C(Nc1ncco1)c1ccn(C2=CC3CN(C2)C(=O)N3OS(=O)(=O)[O-])n1.[Na+]` (stereo not shown) [Example 37, sodium [7-oxo-3-[3-(oxazol-2-ylcarbamoyl)pyrazol-1-yl]-1,6-diazabicyclo[3.2.1]oct-3-en-6-yl]sulfate]: the IC50 turned out to be 3.2 nM at SHV-1; 200 nM at AmpC (PAE); 0.46 nM against CTX-M-15; 9.7 nM on AmpC (P99); 2.9 nM against KPC-2; 0.5 nM against TEM-1. Also, the IC50 at OXA-1 came to 73 nM; at CMY-37, 15 nM; on OXA-15, 32 nM; against OXA-48, 2.5 nM; at OXA-11, 21 nM. The minimum inhibitory concentration (MIC) in the experiment on K. pneumoniae BAA-1898 was more than 32 µg/mL; in the experiment with E. cloacae P99, more than 32 µg/mL; in the experiment on E. coli 190317 it was 8 µg/mL; with K. pneumoniae 6299 it was more than 32 µg/mL; with P. aeruginosa CIP107051, more than 32 µg/mL.
For the compound `NS(=O)(=O)c1cnn(C2=CC3CN(C2)C(=O)N3OS(=O)(=O)[O-])c1.[Na+]` (stereo not shown) [Example 16, sodium [7-oxo-3-(4-sulfamoylpyrazol-1-yl)-1,6-diazabicyclo[3.2.1]oct-3-en-6-yl]sulfate], the IC50 stood at 3.4 nM against SHV-1; 180 nM at AmpC (PAE); 1.4 nM at CTX-M-15; 13 nM against AmpC (P99); 4.6 nM against KPC-2; 0.56 nM against TEM-1. Also, the IC50 at OXA-1 was determined as 100 nM; at CMY-37, 21 nM; against OXA-15 it was 42 nM; against OXA-48, 12 nM; against OXA-11, 650 nM. Besides, the MIC was 32 µg/mL in the experiment on K. pneumoniae BAA-1898; 32 µg/mL with E. cloacae P99; 8 µg/mL in the experiment on E. coli 190317; more than 32 µg/mL in the experiment on K. pneumoniae 6299; more than 32 µg/mL in the experiment with P. aeruginosa CIP107051.
